Measured values: patent US20210102215A1, “TREATMENT AND PREVENTION OF VIRAL INFECTION” (priority 2016, published 2021)
d = 2'-deoxy (DNA); r = 2'-OH (RNA)

Legend:
[1] = tested on: Bmal1 mRNA; assay: Bmal1 mRNA levels by qPCR in hepatocytes / Huh-7 cells; settings: qPCR (FIG. 3a)
[2] = tested on: HIV virus (NL4.3); assay: HIV (NL4.3) infection of TZM-bl cells, HIV promoter luciferase assay; settings: for HIV infection (HIV promoter activity): increasing dose, 24 h (FIGS. 11a, 11b)
[3] = tested on: pseudoparticles expressing viral glycoproteins (HCV, VSV, Lassa, Flu, MLC, Ebola); assay type: cell-based
[4] = tested on: HCV sub-genomic replicon; assay: HCV genome replication in a synthetic sub-genomic replicon line; settings: dose-dependent (FIG. 4a)
[5] = tested on: HCV infected Huh-7 cells; assay: Viral RNA load in chronic HCV infected cells by qPCR; assay type: cell-based, hepatitis C virus; settings: increasing dose, 24 hours, qPCR (FIG. 5a)
Description: To assess the ability of REV-ERB activators to limit HCV RNA replication, HCV infected Huh-7 cells (verified by NSSA staining) were treated with GSK4112 or SR9009 at a range of doses. […], HCV infection levels were quantified by reverse transcriptase polymerase chain measurement of viral RNA (see FIG. 4b).
Huh-7 cells were treated with either REV-ERBα agonist GSK4112 or SR9009 for 16 hour at a range of doses. Medium containing the drug was then removed following viral inoculation and infectivity assessed 24 hours later. To evaluate the efficacy of these drugs in viral replication, chronic infected HCV or HBV cells were treated with REV-ERBα activators at a range of concentrations and viral load determined by real-time qPCR 24 hours later.
(§1) The ability of REV-ERBα activators to reduce viral burden of chronic HCV infected cells was then tested. […] An identical assay was performed in two chronic HBV infected cell lines—2215 and AD38.
HCVcc SA13/JFH-1 infected Huh-7 cells were also treated with increasing concentrations of GSK2667 for 24 h and viral RNA levels measured after 24 h.

[6] = tested on: Bna1 promoter; settings: cited from earlier work
[7] = tested on: HCVpp; assay type: cell-based, hepatitis C virus; settings: cells treated with Rev-erbα agonists (FIG. 3c, 3d)
[8] = tested on: chronic HBV infected cell lines 2215 and AD38; assay: HBV RNA levels in chronic HBV infected cell lines; assay type: cell-based, hepatitis B virus; settings: 2215 and AD38 cells, 48 hours (FIG. 5c)
Description: Huh-7 cells were treated with either REV-ERBα agonist GSK4112 or SR9009 for 16 hour at a range of doses. Medium containing the drug was then removed following viral inoculation and infectivity assessed 24 hours later.
as §1

[9] = tested on: HCV genotype 3a S52 replicon; settings: REV-ERB agonists 20 μM with increasing DAA, 48 h (FIGS. 10f, 10g)
[10] = tested on: HCV sub-genomic replicons genotypes 1b, 2a, 3a; assay: HCV sub-genomic luciferase replicons genotypes 1-3 in Huh-7.5-SEC14L2 cells; settings: genotypes 1-3 replicons, increasing concentrations, 24 h (FIGS. 10c-e)
[11] = tested on: Zika virus; settings: Huh-7, infectivity after 24 h and 48 h (FIG. 12)

Row | Compound | Bmal1 mRNA levels [1] | HIV infection (HIV promoter activity) [2] | Replication of the HCV genome [4] | Viral load (HCV genomic RNA) [5] | Effect on the anti-viral activity (HCV entry) of REV-ERBα agonists GSK4112/SR9009 [7] | Combined effect of REV-ERB agonist and DAA on HCV genotype 3 replication [9] | also measured
1 | CC(C)(C)OC(=O)CN(Cc1ccc(Cl)cc1)Cc1ccc([N+](=O)[O-])s1 [GSK4112] | decreased Bmal1 mRNA levels | inhibit HIV infection | inhibited | dose-dependent reduction in viral load | – | – | Entry of pseudoparticles of multiple viruses [3]: inhibitory effect on entry was replicated across multiple viruses including lassa and ebola
2 | CS(=O)(=O)N(Cc1ccco1)CC(O)Cn1c2ccccc2c2ccccc21 (stereo not shown) [KL001] | – | – | – | – | – | – | Bmal1 promoter activity [6]: inhibit Bna1 promoter activity
3 | CCOC(=O)C1Cc2ccccc2CN1C(=O)c1ccc(SC)s1 (stereo not shown) [SR8278] | – | promotes HIV infection | – | – | rescued | – | –
4 | CCOC(=O)N1CCC(CN(Cc2ccc(Cl)cc2)Cc2ccc([N+](=O)[O-])s2)C1 (stereo not shown) [SR9009] | decreased Bmal1 mRNA levels | inhibit HIV infection | inhibited | dose-dependent reduction in viral load | – | additive effects | HBV RNA levels [8]: significantly reduced HBV RNA levels; Antiviral activity against HCV RNA replication across genotypes [10]: pan-genomic; Zika infection [11]: inhibit Zika infection
5 | CC(C)OC(=O)[C@H](C)N[P@](=O)(OC[C@H]1O[C@@H](n2ccc(=O)[nH]c2=O)[C@](C)(F)[C@@H]1O)Oc1ccccc1 [Sofosbuvir] | – | – | – | – | – | additive effects | –
6 | Rev-erbα siRNA: rev-erba siRNA duplex from Life technologies, SEQ ID NO 5 and 6, two-base DNA overhang (chain 1 GGUGUCUGAAGAAUGAGAATT; chain 2 UUCUCAUUCUUCAGACACCTT; sugars from the 5' end r19 d2, backbone and methylation of C not given here) | – | – | – | – | rescued | – | HIV promoter activity after siRNA knockdown ([2]; 48 h post-siRNA, HIV 24 h (FIG. 11c)): increased HIV promoter activity
